Columns and labels:
Format in all cases: in vivo
rice (Oryza sativa) = experiment: Test B flooded paddy test, visual rating; settings: Flood, 250 g ai/ha, applied to paddy water, rated after 13 to 15 d
Summary of the method: (§1)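 Plants at the 2-leaf stage were flooded to 3 cm above soil, and test compounds were applied directly into the paddy water, which was held at that depth throughout. After 13 to 15 d in a greenhouse, injury was rated visually against untreated controls on a 0–100 scale (0 no effect, 100 complete control).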

[1] = tested on: ducksalad (Heteranthera limosa); experiment: Test B flooded paddy test, visual rating; settings: Flood, 250 g ai/ha, applied to paddy water, rated after 13 to 15 d
Summary of the method: as §1

[2] = tested on: barnyardgrass (Echinochloa crus-galli); experiment: Test B flooded paddy test, visual rating; settings: Flood, 250 g ai/ha, applied to paddy water, rated after 13 to 15 d
Summary of the method: as §1

[3] = tested on: sedge, umbrella (small-flower umbrella sedge, Cyperus difformis); experiment: Test B flooded paddy test, visual rating; settings: Flood, 250 g ai/ha, applied to paddy water, rated after 13 to 15 d
Summary of the method: as §1

[4] = tested on: barnyardgrass (Echinochloa crus-galli); experiment: Test A preemergence, directed soil spray, visual injury rating; settings: 0 is no effect, 100 is complete control
Summary of the method: (§2)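 Seeds sown in a loam soil–sand blend received a directed preemergence soil spray of test chemical in a non-phytotoxic solvent mixture with surfactant. Postemergence plants were sprayed at 2 to 10 cm, one- to two-leaf stage. After approximately 10 d in greenhouse, injury was visually rated 0 (no effect) to 100 (complete control) against untreated controls.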

[5] = tested on: ryegrass, It. (Italian ryegrass, Lolium multiflorum); experiment: as above; settings: 0 is no effect, 100 is complete control
Summary of the method: as §2

kochia (Kochia scoparia) [6] = experiment: as above; settings: 0 is no effect, 100 is complete control
Summary of the method: as §2

[7] = tested on: pigweed (Amaranthus retroflexus); experiment: as above; settings: 0 is no effect, 100 is complete control
Summary of the method: as §2

[8] = tested on: ragweed (common ragweed, Ambrosia elatior); experiment: as above; settings: 0 is no effect, 100 is complete control
Summary of the method: as §2

[9] = tested on: foxtail, giant (giant foxtail, Setaria faberii); experiment: as above; settings: 0 is no effect, 100 is complete control
Summary of the method: as §2

[10] = tested on: barnyardgrass (Echinochloa crus-galli); experiment: Test A postemergence application, visual injury rating; settings: 0 to 100 scale, 0 no effect, 100 complete control
Summary of the method: as §2

[11] = tested on: galium (catchweed bedstraw, Galium aparine); experiment: as above; settings: for Galium plant response rating: 0 to 100 scale, 0 no effect, 100 complete control
Summary of the method: as §2

[12] = tested on: wheat (Triticum aestivum); experiment: as above; settings: for Wheat plant response rating: 0 to 100 scale, 0 no effect, 100 complete control
Summary of the method: as §2

[13] = tested on: ryegrass, It. (Italian ryegrass, Lolium multiflorum); experiment: as above; settings: for Ryegrass, It. plant response rating: 0 to 100 scale, 0 no effect, 100 complete control
Summary of the method: as §2

[14] = tested on: blackgrass (Alopecurus myosuroides); experiment: as above; settings: 0 to 100 scale, 0 no effect, 100 complete control
Summary of the method: as §2

kochia (Kochia scoparia) [15] = experiment: as above; settings: for Kochia plant response rating: 0 to 100 scale, 0 no effect, 100 complete control
Summary of the method: as §2

corn (Zea mays) = experiment: as above; settings: for Corn plant response rating: 0 to 100 scale, 0 no effect, 100 complete control
Summary of the method: as §2

[16] = tested on: pigweed (Amaranthus retroflexus); experiment: as above; settings: for Pigweed plant response rating: 0 to 100 scale, 0 no effect, 100 complete control
Summary of the method: as §2

[17] = tested on: ragweed (common ragweed, Ambrosia elatior); experiment: as above; settings: for Ragweed plant response rating: 0 to 100 scale, 0 no effect, 100 complete control
Summary of the method: as §2

[18] = tested on: foxtail, giant (giant foxtail, Setaria faberii); experiment: as above; settings: for Foxtail, Giant plant response rating: 0 to 100 scale, 0 no effect, 100 complete control
Summary of the method: as §2

[19] = 31 g ai/ha, 0 is no effect, 100 is complete control

Row | SMILES | Rice plant response rating (0 to 100 scale, 0 is no effect, 100 is complete control) (rice (Oryza sativa)) | Ducksalad plant response rating (0 to 100 scale, 0 is no effect, 100 is complete control) [1] | Barnyardgrass plant response rating (0 to 100 scale, 0 is no effect, 100 is complete control) [2] | Sedge, Umbrella plant response rating (0 to 100 scale, 0 is no effect, 100 is complete control) [3] | Plant response rating (0 to 100 scale), Barnyardgrass ([4]; 31 g ai/ha) | Plant response rating (0 to 100 scale), Barnyardgrass ([4]; 125 g ai/ha) | Plant response rating (0 to 100 scale), Ryegrass, It. ([5]; 31 g ai/ha) | Plant response rating (0 to 100 scale), Ryegrass, It. ([5]; 125 g ai/ha) | Plant response rating (0 to 100 scale), Kochia (kochia (Kochia scoparia) [6]; 31 g ai/ha) | Plant response rating (0 to 100 scale), Kochia (kochia (Kochia scoparia) [6]; 125 g ai/ha) | Plant response rating (0 to 100 scale), Pigweed ([7]; 31 g ai/ha) | Plant response rating (0 to 100 scale), Pigweed ([7]; 125 g ai/ha) | Plant response rating (0 to 100 scale), Ragweed ([8]; 31 g ai/ha) | Plant response rating (0 to 100 scale), Ragweed ([8]; 125 g ai/ha) | Plant response rating (0 to 100 scale), Foxtail, Giant ([9]; 31 g ai/ha) | Plant response rating (0 to 100 scale), Foxtail, Giant ([9]; 125 g ai/ha) | Barnyardgrass plant response rating ([10]; 31 g ai/ha) | Barnyardgrass plant response rating ([10]; 125 g ai/ha) | Galium plant response rating ([11]; 125 g ai/ha) | Wheat plant response rating ([12]; 125 g ai/ha) | also measured
1 | Cc1nn(C)c(=O)c(-c2ccc(Cl)c3sccc23)c1OC(=O)c1ccccc1 [Compound 57] | 0 | 0 | 0 | 0 | 0 | 0 | 0 | 10 | 50 | 0 | 0 | 0 | 0 | 0 | 0 | 0 | 0 | 0 | 0 | 0 | Galium plant response rating ([11]; 31 g ai/ha): 0; Wheat plant response rating ([12]; 31 g ai/ha): 0; Ryegrass, It. plant response rating ([13]; 31 g ai/ha): 0; Ryegrass, It. plant response rating ([13]; 125 g ai/ha): 0; Blackgrass plant response rating ([14]; 31 g ai/ha): 0; Blackgrass plant response rating ([14]; 125 g ai/ha): 0; Kochia plant response rating (kochia (Kochia scoparia) [15]; 31 g ai/ha): 0; Kochia plant response rating (kochia (Kochia scoparia) [15]; 125 g ai/ha): 0; Corn plant response rating (corn (Zea mays); 31 g ai/ha): 0; Corn plant response rating (corn (Zea mays); 125 g ai/ha): 0; Pigweed plant response rating ([16]; 31 g ai/ha): 0; Pigweed plant response rating ([16]; 125 g ai/ha): 0; Ragweed plant response rating ([17]; 31 g ai/ha): 0; Ragweed plant response rating ([17]; 125 g ai/ha): 0; Foxtail, Giant plant response rating ([18]; 31 g ai/ha): 0; Foxtail, Giant plant response rating ([18]; 125 g ai/ha): 0
2 | COC(=O)Oc1c(C)nn(C)c(=O)c1-c1ccc(Cl)c2sccc12 [Compound 59] | 20 | 0 | 0 | 0 | 0 | 0 | 10 | 10 | 10 | 20 | 0 | 0 | 50 | 30 | 0 | 0 | 0 | 0 | 80 | 0 | Plant response rating (0 to 100 scale), Galium [11, 19]: 20; Plant response rating (0 to 100 scale), Wheat [12, 19]: 0; Plant response rating (0 to 100 scale), Ryegrass, It. [13, 19]: 0; Ryegrass, It. plant response rating ([13]; 125 g ai/ha): 10; Blackgrass plant response rating ([14]; 31 g ai/ha): 0; Blackgrass plant response rating ([14]; 125 g ai/ha): 0; Plant response rating (0 to 100 scale), Kochia (kochia (Kochia scoparia) [15]; [19]): 0; Kochia plant response rating (kochia (Kochia scoparia) [15]; 125 g ai/ha): 60; Plant response rating (0 to 100 scale), Corn (corn (Zea mays); [19]): 0; Corn plant response rating (corn (Zea mays); 125 g ai/ha): 20; Plant response rating (0 to 100 scale), Pigweed [16, 19]: 0; Pigweed plant response rating ([16]; 125 g ai/ha): 30; Plant response rating (0 to 100 scale), Ragweed [17, 19]: 0; Ragweed plant response rating ([17]; 125 g ai/ha): 0; Plant response rating (0 to 100 scale), Foxtail, Giant [18, 19]: 0; Foxtail, Giant plant response rating ([18]; 125 g ai/ha): 0

From US10750743B2, “Pyridazinone herbicides” (E.I. DU PONT DE NEMOURS AND COMPANY, priority 2015, dated 2020)
